Holding throughout (assay type): in vivo, human
Series [1] is described as follows: Safety and tolerability (adverse events), AAMI pilot study (Example 1). To be noted: for TEAE Probably Related to the study drug: one subject. How it is done:
All randomized subjects that received at least 1 dose of study medication were included in the Safety Population.
Safety evaluations were based on the safety population. Safety and tolerability were assessed in terms of AEs, vital signs, 12-lead ECG, clinical laboratory data, medical history, and study drug compliance. Safety and tolerability data were presented by treatment group.

The test system of the next series is IL-6. The series is described as follows: MARINE study, IL-6. The settings on record: MARINE ITT, week 12. Here is the method:
A multi-center, placebo-controlled randomized, double-blind, 12-week study with an open-label extension was performed to evaluate the efficacy and safety of AMR101 in patients with fasting triglyceride levels ≧500 mg/dL. The primary objective of the study was to determine the efficacy of AMR101 2 g daily and 4 g daily, compared to placebo, in lowering fasting TG levels in patients with fasting TG levels ≧500 mg/dL and ≦1500 mg/dL (≧5.65 mmol/L and ≦16.94 mmol/L).
The population for this study was men and women (women of childbearing potential will need to be on contraception or practice abstinence)>18 years of age with a body mass index ≦45 kg/m^2 who were not on lipid-altering therapy or were currently on lipid-altering therapy. Patients currently on statin therapy (with or without ezetimibe) were evaluated by the investigator as to whether this therapy can be safely discontinued at screening, or if it should be continued. If statin therapy (with or without ezetimibe) was to be continued, dose(s) must have been stable for ≧4 weeks prior to randomization. Patients taking non-statin, lipid-altering medications (niacin >200 mg/day, fibrates, fish oil, other products containing omega-3 fatty acids, or other herbal products or dietary supplements with potential lipid-altering effects), either alone or in combination with statin therapy (with or without ezetimibe), must have been able to safely discontinue non-statin, lipid-altering therapy at screening.
Approximately 240 patients were randomized at approximately 50 centers in North America, South America, Central America, Europe, India, and South Africa. The study was a 58- to 60-week, Phase 3, multi-center study consisting of 3 study periods: (1) A 6- to 8-week screening period that included a diet and lifestyle stabilization and washout period and a TG qualifying period; (2) A 12-week, double-blind, randomized, placebo-controlled treatment period; and (3) A 40-week, open-label, extension period.
After confirmation of qualifying fasting TG values, eligible patients entered a 12-week, randomized, double-blind treatment period. At Visit 4 (Week 0), patients were randomly assigned to 1 of the following treatment groups: • AMR101 2 g daily, • AMR101 4 g daily, or • Placebo.
Eligible patients were randomly assigned at Visit 4 (Week 0) to receive orally AMR101 2 g daily, AMR101 4 g daily, or placebo for the 12-week double-blind treatment period. AMR101 was provided in 1 g liquid-filled, oblong, gelatin capsules. The matching placebo capsule was filled with light liquid paraffin and contained 0 g of AMR101. During the double-blind treatment period, patients took 2 capsules (AMR101 or matching placebo) in the morning and 2 in the evening for a total of 4 capsules per day. […]

Series [2] concerns TG, LDL-C, non-HDL-C, VLDL-C, Lp-PLA2, Apo B, TC, HDL-C, VLDL-TG, hs-CRP, oxLDL, RLP-C. In words: Lipid and inflammatory parameters in statin-treated patients with diabetes mellitus-2, all endpoints (Example 2). The settings on record: for Each evaluated endpoint (TG, LDL-C, non-HDL-C, VLDL-C, Lp-PLA2, Apo B, TC, HDL-C, VLDL-TG, hs-CRP, oxLDL, RLP-C), adjusted for placebo: twelve weeks, diabetes mellitus-2, FIG. 1. From the text: Parameters (a)-(y) can be measured in accordance with any clinically acceptable methodology. For example, triglycerides, total cholesterol, HDL-C and fasting blood sugar can be sample from serum and analyzed using standard photometry techniques. VLDL-TG, LDL-C and VLDL-C can be calculated or determined using serum lipoprotein fractionation by preparative ultracentrifugation and subsequent quantitative analysis by refractometry or by analytic ultracentrifugal methodology. Apo A1, Apo B and hsCRP can be determined from serum using standard nephelometry techniques. Lipoprotein (a) can be determined from serum using standard turbidimetric immunoassay techniques. LDL particle number and particle size can be determined using nuclear magnetic resonance (NMR) spectrometry. Remnants lipoproteins and LDL-phospholipase A2 can be determined from EDTA plasma or serum and serum, respectively, using enzymatic immunoseparation techniques. Oxidized LDL, intercellular adhesion molecule-1 and interleukin-2 levels can be determined from serum using standard enzyme immunoassay techniques. These techniques are described in detail in standard textbooks, for example Tietz Fundamentals of Clinical Chemistry, 6th Ed. (Burtis, Ashwood and Borter Eds.), WB Saunders Company.
The effect of >96% E-EPA on lipid and inflammatory parameters was evaluated in patients with fasting triglyceride levels ≧150 mg/dl and <499 mg/dl on concomitant statin therapy. Patients with diabetes mellitus-2 were randomized and treated with either 2 g/day >96% E-EPA, 4 g/day >96%, or placebo for twelve weeks. At the end of the treatment period, several diabetes efficacy endpoints were evaluated including, TG, LDL-C, non-HDL-C, VLDL-C, Lp-PLA2, Apo B, TC, HDL-C, VLDL-TG, hs-CRP, oxLDL, and RLP-C.

With `CC/C=C\C/C=C\C/C=C\C/C=C\C/C=C\CCCC(=O)OCC` [AMR101, all-cis eicosa-5,8,11,14,17-pentaenoic acid ethyl ester], the results for the “Subjects with nausea Possibly Related to the study drug” value in series [1] (1 g cohort), in series [1] (2 g cohort) and in series [1] (4 g cohort) were “two”, “one” and “two”, respectively. The “TEAE Probably Related to the study drug” value in series [1] (1 g) was “nausea”; in series [1] (4 g), “diarrhea”. For the same compound, the SAE reported result in series [1] (2 g treatment group) is “One”. Besides, in series [1] (2 g treatment group), the “Subjects discontinued due to TEAEs” value came to 2 subjects. Moreover, the “Deaths during the study” value in series [1] (all groups) is listed as “no deaths”. Further, the “TEAEs Definitely Related to the study drug” value in series [1] (all groups) was “No TEAEs were Definitely Related”. In addition, the “Treatment emergent AEs (TEAEs) reported” value in series [1] (ethyl-EPA treatment groups (1, 2, 4 g), 6 weeks, placebo groups 34 events) is 105 events. In addition, the “Relatedness of the SAE (worsening epigastric chest pain)” value in series [1] (one subject receiving 2 g) is “unrelated to the study drug”. Also, the “Severity and relatedness of most TEAEs” value in series [1] (whole study) is “mild in severity and unrelated to study drug”. The “IL-6 change from baseline (median)” value amounted to 3.4% with IL-6 (2 g/day) and 0.3% with IL-6 (4 g/day). The “IL-6 end-of-treatment value (median)” value in the series with IL-6 (2 g/day) was found to be 3.0 pg/mL; with IL-6 (4 g/day), 2.4 pg/mL. For the same compound, the “Each evaluated endpoint (TG, LDL-C, non-HDL-C, VLDL-C, Lp-PLA2, Apo B, TC, HDL-C, VLDL-TG, hs-CRP, oxLDL, RLP-C), adjusted for placebo” value in series [2] (2 g/day) and in series [2] (4 g/day) was “showed a decrease” throughout. Also, the “Placebo-adjusted effects on non-HDL-C, VLDL-C, Apo B, TC, VLDL-TG, hsCRP and oxLDL, less-controlled versus well-controlled subjects” value in series [2] (4 g/day, Table 7 and FIG. 3) is reported as “more pronounced effects were observed in less-controlled diabetics”.

Source of the values: US9827219B2, “Compositions and methods for lowering levels of high-sensitivity C-reactive protein (HS-CRP) in a subject” (priority 2012, dated 2017).
